Tests used:
[1] = test system: H7N9 virus; type: in vivo, BALB/c mice; conditions: 1×LD80 dose of H7N9; nasal administration, 5 doses; PB2-39 2.5 mg/kg, zanamivir 20 μl of 2.5 mg/ml
[2] = test system: H1N1 virus; test: in vivo antiviral effect in mice infected with H1N1; conditions: for survival rate: nasal administration
[3] = test system: H5N1 influenza virus; type: in vivo, BALB/c mice; conditions: 1×LD50 dose of H5N1; nasal administration, 5 doses; PB2-39 2.5 mg/kg, zanamivir 20 μl of 2.5 mg/ml
[4] = test system: influenza virus; test: lung viral load and histopathology in infected mice (PB2-39 study); conditions: fourth day following inoculation
[5] = test system: influenza viruses H1N1; H3N2; H5N1; H7N7; H7N9; H9N2; type: cell-based, influenza virus A; conditions: 20, 5, 1.25, 0.31 μM; 24 h after inoculation; MOI 0.002; RT-qPCR
[6] = test system: influenza virus; test: microbe, parasite or virus in culture; type: cell-based; conditions: for IC50: unidentified influenza virus; for Selectivity Index: CC50 divided by IC50
[7] = in vitro; conditions: dog
[8] = test system: influenza H1N1 virus; type: cell-based, influenza virus A
[9] = water-solubility; type: physicochemical
[10] = 1×LD60 dose of H1N1, PB2-19 1 mg/kg body weight
[11] = 5×LD50 dose of H1N1, 5 doses from 6 h after inoculation, PB2-39 2.5 mg/kg, zanamivir 20 μl of 2.5 mg/ml
[12] = 1×LD60 dose of H1N1, PB2-19 1 mg/kg

SMILES: CC(=O)N[C@H]1[C@H]([C@H](O)[C@H](O)CO)OC(C(=O)O)=C[C@@H]1N=C(N)N [zanamivir, reference compound]
- survival rate [1]: 100%
- survival rate [2, 10]: 100%
- survival rate [2, 11]: 100%
- survival rate [3]: 100%

SMILES: O=c1oc2ccccc2c(O)c1C1c2c(c3ccccc3oc2=O)Oc2c1c(=O)oc1ccccc21 [PB2-39, 7-(4-hydroxy-2-oxo-2H-chromen-3-yl)-6H,7H,8Hchromeno[3,4′:5,6]pyrano[3,2-c]chromene-6,8-dione]
- amounts of viruses in lung tissues ([4]; plaque assay, PB2-39 2.5 mg/kg nasal): significantly reduced
- histopathological examination: interstitial inflammatory cell infiltration and alveolar injury ([4]; lung tissues): improvement
- inhibition of replication of tested influenza strains [5]: inhibited the replication of all the tested influenza strains in a dose-dependent manner
- IC50 [6]: 1220 ± 230 nM
- CC50 [7]: > 1000 µM
- survival rate [1]: 100%
- survival rate [2, 11]: 100%
- survival rate [3]: 100%
- reduction of the viral titer of supernatant [8]: 100-1000 times

SMILES: Cc1cc(C(=O)Nc2ccc(I)cc2C(=O)O)ccc1[N+](=O)[O-] [PB2-19, 5-iodo-2-[(3-methyl-4-nitrobenzoyl)amino]benzoic acid]
- water-solubility [9]: limited
- Selectivity Index [6]: 273
- IC50 [6]: 550 ± 50 nM
- CC50 [7]: 150 ± 10 µM
- histopathological findings [2, 12]: corroborated the ability of PB2-19 to provide in vivo anti-influenza effects
- viral proliferation in the lungs [2, 12]: effectively reduce
- survival rate [2, 10]: 100%

SMILES: Cc1ccc(C(c2c(O)c3ccccc3oc2=O)c2c(O)c3ccccc3oc2=O)cc1 [PB2-35, 3,3′-[(4-methylphenyl)methylene]bis(4-hydroxy-2H-chromen-2-one)]
- Selectivity Index [6]: 40
- IC50 [6]: 1240 ± 210 nM
- CC50 [7]: 50 ± 5 µM
